Measured values from patent US20210330774A1, “HERV-K-DERIVED ANTIGENS AS SHARED TUMOR ANTIGENS FOR ANTI-CANCER VACCINE” (CENTRE LEON BERARD, priority 2018, published 2021).

How the values were obtained:
Format in all cases: cell-based, human
CD8+ T cells = test: Dextramer assay after 12-day peptide stimulation of PBMCs from HLA-A2 donors; conditions: for dextramer positive CD8+ T cells: representative plot, day 12, peptide-stimulated PBMCs; for ability to elicit a specific CD8+ T cell response: summary statement; for increase in dextramer positive CD8+ T cells, peptide stimulated versus non stimulated: FIG. 4B, 12 different donors, day 12
[1] = test system: T2 cells pulsed with the cognate peptide; test: ELISPOT for IFN-γ and Granzyme-β of peptide stimulated PBMCs co-cultured with T2 cells; conditions: 2.10^5 cells per well, ratio 10:1 with T2 cells, revealed after 24h
Description: C. Representative histograms of the number of IFN-γ+ and Granzyme-I3+ spots after 12 days stimulation and following 24h of contact with T2 cells pulsed with the cognate peptide.
Peptide stimulated PBMCs after the 12-day culture were used to perform an ELISPOT assay for IFN-γ and Granzyme-β (FIG. 2C). 2.10^5 cells per well were put in co-culture with T2 cell specific for the peptide of interest in a ratio 10:1.

[2] = test system: T2 cells pulsed with HERV peptide; test: Cytotoxicity assay with T2 cells contact (intracellular IFN-γ of CD8+ T cells, FACS); conditions: for IFN-γ production, number of CD8+ T cells: FIG. 5B, 12 different donors, day 12; for IFN-γ production, percentage of CD8+ T cells (in median): FIG. 3B, 5 different donors, day 12, T2 cells pulsed with cognate peptide
Description: On day 12 of PBMCs culture, T2 cells were washed in RPMI and resuspended into AIM-V medium (Thermo Fisher Scientific). T2 (SD Cell line) are a lymphoblast cell line deficient in the transporter associated with antigen processing (TAP) protein, and therefore cannot present endogenous peptides on the class I MHC, but can be used to monitor the CTL response to an exogenous antigen of interest in a non-competitive environment. T2 cells were first pulsed with HERV peptide by adding 10 μg/mL of corresponding peptide to 2M T2 cell for 2 hours at 37° C. PBMCs were pooled and counted and put in co-culture with corresponding T2 cells at a respective concentration of 1:5 into a new 96 U-well plate.
After 4 hours of incubation at 37° C., cells from co-culture were washed and pooled in V-well plate according to their staining condition in FACS buffer. Zombie NIR (Biolegend) was used at 1/400 to assess viability. Anti CD3 (PercP, Biolegend) and anti CD8 (FITC, Beckman coulter) antibodies were added 1/10 per condition and left for 25 minutes at 4° C. Cells were washed again and then fixed with fixation/permeabilization solution kit (Invitrogen, Carlasbad, USA) according to the manufacturer's instructions for 15 minutes at room temperature. Cells were washed two times in FACS buffer and kept at 4° c.
On day 13, cells were permeabilized with the permeabilization solution kit (Invitrogen) for 5 minutes at room temperature and anti IFN-γ (PE, Biolegend) antibody was added 1/20 to the solution for additional 25 minutes at 4° C. Cells were washed two times and resuspended in 350 μL of FACS buffer before FACS analysis. Analysis was performed on FACS Fortessa (BD) to explore the specific cytotoxicity and degranulation against T2 cells expressing HERV sequences.

[3] = test system: CD8+ T cells expanded from TNBC and ovarian tumor dilacerate; test: Dextramer staining of tumor infiltrated lymphocytes (TILs) from TNBC and ovarian cancer; conditions: day 14, FIG. 7
Description: Tumors were dilacerated in small pieces and digested with collagenase IV and DNAse for 45 minutes. The cells obtained were resuspended in 5% human serum RPMI and distributed in 96 well (5.10^4 cells per well). Anti-CD3/CD28 microbeads (Miltenyi biotech) were added to the well in a ratio of 1:4 with cells in the presence of IL-2 (F.C. 100 IU/ml). TILs were cultured for 14 days by changing medium at day 5, 7, 9 and 12 and the number of the cells was adapted to have 0.5×10^6 cells/ml.
At day 14 a dextramer staining was performed (see dextramer assay paragraph) for the 7 peptides of interest (P1 to P7—SEQ ID NO: 1 to 7) and dextramer specific CD8+ T cells were identified by FACS analysis in TNBC (FIG. 7A) and ovarian cancer (FIG. 7B).

| Sequence | dextramer positive CD8+ T cells (CD8+ T cells; FIG. 2A) | ability to elicit a specific CD8+ T cell response (CD8+ T cells) | specific IFN-γ and Granzyme-β spots [1] | IFN-γ production, number of CD8+ T cells [2] | increase in dextramer positive CD8+ T cells, peptide stimulated versus non stimulated (CD8+ T cells) | frequency of specific CD8+ T cells in the tumors [3] | IFN-γ production, percentage of CD8+ T cells (in median) [2] | dextramer positive CD8+ T cells (CD8+ T cells; FIG. 4A) |
| --- | --- | --- | --- | --- | --- | --- | --- | --- |
| AMIPKDWPL (HERV epitope 5) [P5] | 34.2% | able to elicit a specific CD8+ T cell response | – | – | – | – | – | – |
| SMDDQLNQL (HERV epitope 7) [P7] | – | able to elicit a specific CD8+ T cell response | – | – | – | – | – | – |
| YAMSNLFSI (HERV epitope 6) [P6] | – | able to elicit a specific CD8+ T cell response | specific IFN-γ and Granzyme-β spots | moderate number | significant increase | more frequently represented | – | – |
| FLQFKTWWI (HERV epitope) [P1] | – | able to elicit a specific CD8+ T cell response | specific IFN-γ and Granzyme-β spots | significant number | significant increase | more frequently represented | ~10% | 0.63% |
| YLSFIKILL (HERV epitope 4) [P4] | – | able to elicit a specific CD8+ T cell response | – | – | significant increase | – | – | – |
| KLIDCYTFL (epitope 3) [P3] | – | able to elicit a specific CD8+ T cell response | – | significant number | slightly | – | ~5% | – |
| RLIPYDWEI (epitope 2) [P2] | – | able to elicit a specific CD8+ T cell response | – | significant number | slightly | – | ~5% | – |
